Read-outs that look alike come from different tables or passages of the source. Where a SMILES comes first, the peptide text is derived from it. Bridges are numbered along the chain shown (N, C = ends). [ ]: non-standard residue; d: D form. The star is where a group is joined. d(aIle) = CC[C@H](C)[C@@H](N)C(=O)O; d(aThr) = C[C@@H](O)[C@@H](N)C(=O)O; Hexanoyl(5-Me) = CC(C)CCCC(=O)*; Orn = NCCC[C@H](N)C(=O)O; Aib = CC(C)(N)C(=O)O
What was measured:
Format in all cases: cell-based, human
DU-145 = test: SRB colorimetric assay of cell growth and viability, DU-145; settings: 48 hours exposure
SK-BR-3 = test: SRB colorimetric assay of cell growth and viability, SK-BR-3; settings: 48 hours exposure
PANC-1 = test: SRB colorimetric assay of cell growth and viability, PANC-1; settings: 48 hours exposure; for CC50: read-out: LC50 PANC-1
HT-29 = test: SRB colorimetric assay of cell growth and viability, HT-29; settings: 48 hours exposure; for GI50: read-out: GI50 HT-29; for CC50: read-out: LC50 HT-29
K-562 = test: SRB colorimetric assay of cell growth and viability, K-562; settings: 48 hours exposure; for CC50: read-out: LC50 K-562
SK-MEL-28 = test: SRB colorimetric assay of cell growth and viability, SK-MEL-28; settings: 48 hours exposure; for CC50: read-out: LC50 MEL-28
LNCaP = test: SRB colorimetric assay of cell growth and viability, LNCaP; settings: 48 hours exposure; for GI50: read-out: GI50 LN-caP; for CC50: read-out: LC50 LN-caP
LoVo-Dox = test: SRB colorimetric assay of cell growth and viability, LoVo-Dox; settings: 48 hours exposure; for CC50: read-out: LC50 LOVO-DOX
Summary of the method: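 Continuous 48-hour exposure of cells plated at 5×10^3 per well, with compounds diluted in DMSO:EtOH:PBS (0.5:0.5:99) over 10 to 10^−8 μg/mL. Staining with SRB and reading at 490 nm give GI, TGI and LC.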

LoVo = test: SRB colorimetric assay of cell growth and viability, LoVo; settings: 48 hours exposure; for CC50: read-out: LC50 LOVO
IGROV-1 = test: SRB colorimetric assay of cell growth and viability, IGROV-1; settings: 48 hours exposure
IGROV-ET = test: SRB colorimetric assay of cell growth and viability, IGROV-ET; settings: 48 hours exposure; for CC50: read-out: LC50 IGROV-ET
HeLa = test: SRB colorimetric assay of cell growth and viability, HeLa; settings: 48 hours exposure; for CC50: read-out: LC50 HELA
A-549 = test: SRB colorimetric assay of cell growth and viability, A-549; settings: 48 hours exposure; for GI50: read-out: GI50 A-549; for CC50: read-out: LC50 A-549
HeLa-APL = test: SRB colorimetric assay of cell growth and viability, HeLa-APL; settings: 48 hours exposure; for CC50: read-out: LC50 HELA-APL

With `C/C=C1\NC(=O)[C@H](Cc2ccccc2)NC(=O)[C@@H](C(C)C)NC(=O)[C@@H]([C@@H](C)CC)NC(=O)[C@H](NC(=O)[C@H](NC(=O)[C@H](CCCN)NC(=O)[C@H]2CCCN2C(=O)[C@H](NC(=O)[C@@H](NC(=O)[C@@H](NC(=O)[C@H](NC(=O)C(F)(F)C(F)(F)C(F)(F)C(F)(F)C(F)(F)C(F)(F)F)C(C)C)[C@@H](C)O)C(C)C)C(C)C)[C@@H](C)CC)[C@@H](C)OC(=O)[C@H](C(C)C)NC1=O` [Compound 26, [Pfh^14]-KF] the GI50 (DU-145) was 0.596 µM, the LC50 (concentration causing 50% net cell kill) (DU-145) was 3.35 µM and the “TGI DU-145” value (DU-145) was 1.41E−06 Molar. The GI50 (SK-BR-3) was 0.144 µM, the LC50 (SK-BR-3) was 2.18 µM and the “TGI SK-BR-3” value (SK-BR-3) was 4.92E−07 Molar. For the same compound, the GI50 (PANC-1) was 2.01 µM, the “TGI PANC-1” value (PANC-1) was 5.50E−06 Molar and the CC50 (PANC-1) was 5.84 µM. The “TGI HT-29” value (HT-29) was 4.55E−07 Molar, the GI50 (HT-29) was 0.203 µM and the CC50 (HT-29) was 1.89 µM. The GI50 (K-562) was 1.33 µM, the “TGI K-562” value (K-562) was 2.33E−06 Molar and the CC50 (K-562) was 4.07 µM. The GI50 (SK-MEL-28) was 0.754 µM, the “TGI MEL-28” value (SK-MEL-28) was 1.50E−06 Molar and the CC50 (SK-MEL-28) was 2.96 µM. The “TGI LN-caP” value (LNCaP) was 1.72E−06 Molar, the GI50 (LNCaP) was 0.9 µM and the CC50 (LNCaP) was 3.28 µM. For the same compound, the GI50 (LoVo-Dox) was 0.131 µM, the “TGI LOVO-DOX” value (LoVo-Dox) was 2.52E−07 Molar and the CC50 (LoVo-Dox) was 0.484 µM. The GI50 (LoVo) was 0.654 µM, the “TGI LOVO” value (LoVo) was 1.38E−06 Molar and the CC50 (LoVo) was 2.99 µM. For the same compound, the GI50 (IGROV-1) was 0.648 µM, the LC50 (concentration causing 50% net cell killing) (IGROV-1) was 3.36 µM and the “TGI IGROV” value (IGROV-1) was 1.48E−06 Molar. For the same compound, the GI50 (IGROV-ET) was 0.199 µM, the “TGI IGROV-ET” value (IGROV-ET) was 5.14E−07 Molar and the CC50 (IGROV-ET) was 2.04 µM. The GI50 (HeLa) was 0.701 µM, the “TGI HELA” value (HeLa) was 1.57E−06 Molar and the CC50 (HeLa) was 3.51 µM. For the same compound, the “TGI A-549” value (A-549) was 1.48E−06 Molar, the GI50 (A-549) was 0.684 µM and the CC50 (A-549) was 3.19 µM. The GI50 (HeLa-APL) was 0.455 µM, the “TGI HELA-APL” value (HeLa-APL) was 1.33E−06 Molar and the CC50 (HeLa-APL) was 3.52 µM.

For `CC[C@H](C)[C@@H](NC(=O)[C@H](CCCN)NC(=O)[C@H]1CCCN1C(=O)[C@H](NC(=O)[C@@H](NC(=O)[C@@H](NC(=O)[C@H](NC(=O)CCCC(C)C)C(C)C)[C@@H](C)O)C(C)C)C(C)C)C(=O)N[C@H]1C(=O)N[C@H]([C@@H](C)CC)C(=O)N[C@H](C(C)C)C(=O)N[C@@H](Cc2ccccc2)C(=O)NC(C)(C)C(=O)N[C@@H](C(C)C)C(=O)O[C@@H]1C` [Compound 66, [Aib^2]-KF] ({Hexanoyl(5-Me)}-[dV]TV[dV][dP][Orn][d(aIle)][d(aThr)][d(aIle)][dV]F[Aib]V; ester 8-C), the GI50 (DU-145) was 1.36 µM, the “TGI DU-145” value (DU-145) was 2.73E−06 Molar and the LC50 (concentration causing 50% net cell kill) (DU-145; SRB) was 5.45 µM. The GI50 (SK-BR-3) was 1.49 µM, the “TGI SK-BR-3” value (SK-BR-3) was 2.67E−06 Molar and the LC50 (SK-BR-3; SRB) was 4.77 µM. The GI50 (PANC-1; SRB) was ≥ 6.76 µM, the “TGI PANC-1” value (PANC-1; SRB) was 6.76E−06 Molar and the CC50 (PANC-1; SRB) was ≥ 6.76 µM. The “TGI HT-29” value (HT-29; SRB) was 2.54E−06 Molar, the GI50 (HT-29; SRB) was 1.28 µM and the CC50 (HT-29; SRB) was 5.06 µM. For the same compound, the GI50 (K-562; SRB) was ≥ 6.76 µM, the “TGI K-562” value (K-562; SRB) was 6.76E−06 Molar and the CC50 (K-562; SRB) was ≥ 6.76 µM. For the same compound, the GI50 (SK-MEL-28) was 2.24 µM, the “TGI MEL-28” value (SK-MEL-28) was 6.14E−06 Molar and the CC50 (SK-MEL-28; SRB) was ≥ 6.76 µM. The “TGI LN-caP” value (LNCaP) was 6.76E−06 Molar, the CC50 (LNCaP; SRB) was ≥ 6.76 µM and the GI50 (LNCaP) was 4.63 µM. For the same compound, the GI50 (LoVo-Dox; SRB) was 1.07 µM, the “TGI LOVO-DOX” value (LoVo-Dox; SRB) was 2.26E−06 Molar and the CC50 (LoVo-Dox; SRB) was 4.8 µM. For the same compound, the GI50 (LoVo; SRB) was 1.3 µM, the “TGI LOVO” value (LoVo; SRB) was 2.47E−06 Molar and the CC50 (LoVo; SRB) was 4.71 µM. For the same compound, the GI50 (IGROV-1) was 1.57 µM, the “TGI IGROV” value (IGROV-1) was 2.82E−06 Molar and the LC50 (concentration causing 50% net cell killing) (IGROV-1; SRB) was 5.05 µM. The GI50 (IGROV-ET) was 1.21 µM, the “TGI IGROV-ET” value (IGROV-ET) was 2.43E−06 Molar and the CC50 (IGROV-ET; SRB) was 4.89 µM. For the same compound, the GI50 (HeLa; SRB) was 3.17 µM, the “TGI HELA” value (HeLa; SRB) was 6.76E−06 Molar and the CC50 (HeLa; SRB) was ≥ 6.76 µM. The “TGI A-549” value (A-549; SRB) was 6.76E−06 Molar, the GI50 (A-549; SRB) was 4.96 µM and the CC50 (A-549; SRB) was ≥ 6.76 µM. For the same compound, the GI50 (HeLa-APL; SRB) was 3.41 µM, the “TGI HELA-APL” value (HeLa-APL; SRB) was 6.76E−06 Molar and the CC50 (HeLa-APL; SRB) was ≥ 6.76 µM.

In the case of `C/C=C1\NC(=O)[C@H](Cc2ccccc2)NC(=O)[C@@H](C(C)C)NC(=O)[C@@H]([C@@H](C)CC)NC(=O)[C@H](NC(=O)[C@H](NC(=O)[C@H](CCCNC(=O)C(F)(F)F)NC(=O)[C@H]2CCCN2C(=O)[C@H](NC(=O)[C@@H](NC(=O)[C@@H](NC(=O)[C@H](NC(=O)CC[C@@H](C)CC)C(C)C)[C@@H](C)O)C(C)C)C(C)C)[C@@H](C)CC)[C@@H](C)OC(=O)[C@H](C(C)C)NC1=O` [Compound 96, [Orn(N^δTfa)^8, 4(S)MeHex^14]-Kahalalide F], the GI50 (DU-145; SRB) is reported as 0.985 µM, the LC50 (concentration causing 50% net cell kill) (DU-145; SRB) is reported as 3.81 µM and the “TGI DU-145” value (DU-145; SRB) is reported as 1.94E−06 Molar. The GI50 (SK-BR-3; SRB) was 0.0648 µM, the LC50 (SK-BR-3; SRB) was 0.56 µM and the “TGI SK-BR-3” value (SK-BR-3; SRB) was 1.91E−07 Molar. The GI50 (PANC-1; SRB) was 6.04 µM, the “TGI PANC-1” value (PANC-1; SRB) was 6.35E−06 Molar and the CC50 (PANC-1; SRB) was 6.35 µM. The “TGI HT-29” value (HT-29; SRB) was 2.11E−07 Molar, the GI50 (HT-29; SRB) was 0.101 µM and the CC50 (HT-29; SRB) was 0.442 µM. For the same compound, the GI50 (K-562; SRB) was 4.5 µM, the “TGI K-562” value (K-562; SRB) was 6.35E−06 Molar and the CC50 (K-562; SRB) was 6.35 µM. The GI50 (SK-MEL-28; SRB) was 1.22 µM, the “TGI MEL-28” value (SK-MEL-28; SRB) was 2.15E−06 Molar and the CC50 (SK-MEL-28; SRB) was 3.77 µM. The “TGI LN-caP” value (LNCaP; SRB) was 4.60E−06 Molar, the GI50 (LNCaP; SRB) was 1.73 µM and the CC50 (LNCaP; SRB) was 6.35 µM. The GI50 (LoVo-Dox; SRB) was 0.153 µM, the “TGI LOVO-DOX” value (LoVo-Dox; SRB) was 2.93E−07 Molar and the CC50 (LoVo-Dox; SRB) was 0.559 µM. The GI50 (LoVo; SRB) was 0.14 µM, the “TGI LOVO” value (LoVo; SRB) was 2.64E−07 Molar and the CC50 (LoVo; SRB) was 0.5 µM. For the same compound, the GI50 (IGROV-1; SRB) was 0.184 µM, the LC50 (concentration causing 50% net cell killing) (IGROV-1; SRB) was 0.607 µM and the “TGI IGROV” value (IGROV-1; SRB) was 3.34E−07 Molar. The GI50 (IGROV-ET; SRB) was 0.178 µM, the “TGI IGROV-ET” value (IGROV-ET; SRB) was 3.32E−07 Molar and the CC50 (IGROV-ET; SRB) was 0.619 µM. For the same compound, the GI50 (HeLa; SRB) was 0.244 µM, the “TGI HELA” value (HeLa; SRB) was 7.24E−07 Molar and the CC50 (HeLa; SRB) was 2.59 µM. For the same compound, the “TGI A-549” value (A-549; SRB) was 2.57E−06 Molar, the GI50 (A-549; SRB) was 1.26 µM and the CC50 (A-549; SRB) was 5.23 µM. For the same compound, the GI50 (HeLa-APL; SRB) was 0.686 µM, the “TGI HELA-APL” value (HeLa-APL; SRB) was 1.62E−06 Molar and the CC50 (HeLa-APL; SRB) was 3.82 µM.
